# Like-named read-outs stand apart in the source and are kept apart here. Marks after values point to notes of the source that are not given here.
# Tests used:
# human GAL2 receptor = molecular target: T1, human GAL2 receptor (Homo sapiens, UniProt O43603); assay: Radioligand binding at cloned human GAL2 receptor; conditions: pyrimidines, read-out: Ki GalR2
# T1 construct: expressed in transfected cells
# T1 sequence (O43603 1-387): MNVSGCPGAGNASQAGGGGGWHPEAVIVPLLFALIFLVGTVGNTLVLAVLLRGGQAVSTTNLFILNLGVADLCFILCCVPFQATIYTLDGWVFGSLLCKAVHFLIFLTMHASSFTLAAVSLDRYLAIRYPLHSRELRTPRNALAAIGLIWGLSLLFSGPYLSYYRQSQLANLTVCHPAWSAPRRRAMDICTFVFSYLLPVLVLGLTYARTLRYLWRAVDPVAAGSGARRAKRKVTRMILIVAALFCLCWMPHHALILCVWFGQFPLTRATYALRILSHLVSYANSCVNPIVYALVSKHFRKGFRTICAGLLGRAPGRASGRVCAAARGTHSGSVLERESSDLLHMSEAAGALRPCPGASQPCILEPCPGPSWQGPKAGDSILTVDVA
# Description: The binding properties of the pyrimidines of the present invention were evaluated at the cloned human galanin receptors, GAL1, GAL2, and GAL3, using protocols described herein.
# The binding properties of the indolones of the present invention were evaluated at the cloned human galanin receptors, GAL1, GAL2, and GAL3, using protocols described herein.
# LM(tk-) cells were stably transfected with the human GAL1 or GAL3 receptor. CHO cells were stably transfected with the human GAL2 receptor.
# cDNAs for the human and rat GAL1, and human and rat GAL3 receptors were transfected with a G-418 resistant gene into the mouse fibroblast LM(tk-) cell line by a calcium phosphate transfection method (Cullen, 1987). Stably transfected cells were selected with G-418. Human and rat GAL2 receptors were similarly transfected into CHO cells.
# Membranes were harvested from stably transfected LM(tk-) cells. Adherent cells were washed twice in ice-cold phosphate buffered saline (138 mM NaCl, 8.1 mM Na2HPO4, 2.5 mM KCl, 1.2 mM KH2PO4, 0.9 mM CaCl2, 0.5 mM MgCl2, pH 7.4) and lysed by sonication in ice-cold sonication buffer (20 mM Tris-HCl, 5 mM EDTA, pH 7.7). Large particles and debris were cleared by low speed centrifugation (200 x g, 5 min, 4°C). Membranes were collected from the supernatant fraction by centrifugation (32,000 x g, 18 min, 4°C), washed with ice-cold hypotonic buffer, and collected again by centrifugation (32,000 x g, 18 min, 4°C). The final membrane pellet was resuspended by sonication into a small volume of ice-cold binding buffer (-1 ml for every 5 plates: 10 mM NaCl, 20 mM HEPES, 0.22 mM KH2PO4, 1.26 mM CaCl2, 0.81 mM MgSO4, pH 7.4). Protein concentration was measured by the Bradford method (Bradford, 1976) using Bio-Rad Reagent, with bovine serum albumin as a standard. Membranes were held on ice for up to one hour and used fresh, or flash frozen and stored in liquid nitrogen. Membranes were prepared similarly from CHO cells.
# Galanin Recentors: Binding assays were performed according to the following published methods: human GAL3 (PCT International Publication No. WO 98/15570), human GAL1 (PCT International Publication No. WO 95/2260), human GAL2 (PCT International Publication No. WO 97/26853).
# Binding data were analyzed using nonlinear regression and statistical techniques available in the GraphPAD Prism package (San Diego, CA). Enzymatic assay data were derived from a standard curve of reference compound data.
# human GAL3 receptor = molecular target: T2, human GAL3 receptor (Homo sapiens, UniProt O60755); assay: Radioligand binding at cloned human GAL3 receptor; conditions: cloned human receptor, read-out: Ki GalR3
# T2 construct: expressed in transfected cells
# T2 sequence (O60755 1-368): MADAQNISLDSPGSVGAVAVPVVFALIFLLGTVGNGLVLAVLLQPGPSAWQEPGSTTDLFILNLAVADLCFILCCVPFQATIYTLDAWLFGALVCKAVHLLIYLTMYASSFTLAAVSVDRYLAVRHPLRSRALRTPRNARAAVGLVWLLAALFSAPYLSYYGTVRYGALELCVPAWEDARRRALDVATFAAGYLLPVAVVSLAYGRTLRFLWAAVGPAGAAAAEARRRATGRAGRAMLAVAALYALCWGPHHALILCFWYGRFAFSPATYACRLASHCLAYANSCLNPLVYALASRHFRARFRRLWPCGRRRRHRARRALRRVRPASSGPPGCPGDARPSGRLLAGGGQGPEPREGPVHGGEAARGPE
# Method in brief: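 Compound vehicle, as final assay concentration, was 3% DMSO (indolones) or 1% ethanol/0.09% polypuronic acid F-127 (pyrimidines). Binding measured on fresh or frozen membranes of stably transfected LM(tk-) mouse fibroblasts carrying cloned human GAL3, in pH 7.4 HEPES buffer; values derived by nonlinear regression.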
# Male Sprague-Dawley rats = assay: Rat Forced Swim Test (FST); type: in vivo; conditions: for antidepressant profile in the FST (conclusion): overall conclusion of the study
# Description: The procedure used in this study was similar to that previously described (Porsolt, et al., 1978), except the water depth (30 cm in this procedure). The greater depth in this test prevented the rats from supporting themselves by touching the bottom of the cylinder with their feet. Swim sessions were conducted by placing rats in individual plexiglass cylinders (46 cm tall x 20 cm in diameter) containing 23-25°C water 30 cm deep (Porsolt, et al. used a depth of only 15 cm; also, see Detke, et al., 1995). Two swim tests were conducted always between 1200 and 1800 hours: an initial 15-min pretest followed 24 h later by a 5-minute test. […] All other test sessions were conducted between 1300 to 1700 hours. Following all swim sessions, rats were removed from the cylinders, dried with paper towels and placed in a heated cage for 15 minutes and returned to their home cages. All test sessions were videotaped using a Panasonic color video camera and recorder for scoring later.
# Male Sprague-Dawley rats (Taconic Farms, NY) were used in all experiments. Rats were housed in pairs and maintained on a 12:12-h light-dark cycle. Rats were handled for 5 minutes each day for 5 days prior to behavioral testing.
# The rat's behavior was rated at 5 second intervals during the 5 minute test as one of the following: • 1. Immobility- rat remained floating in the water without struggling and was only making those movements necessary to keep its head above water; • 2. Climbing - rat was making active movements with its forepaws in and out of the water, usually directed against the walls; • 3. Swimming - rat was making active swimming motions, more than necessary to merely maintain its head above water, e.g. moving around in the cylinder; and • 4. Diving - entire body of the rat was submerged.
# All of the behavior scoring was done by a single rater, who was blind to the treatment condition. The rater was also present in the room throughout the entire test period.
# All injections were given using 1 cc tuberculin syringe with 26 3/8 gauge needles (Becton-Dickinson, VWR Scientific, Bridgeport, NJ). The volume of injection was 1 ml/kg.
# The drugs were dissolved in 100% N,N-dimethylacetamide. All administrations were given using 1 cc tuberculin syringes, to which a 3 inch, curved, stainless steel gavage needle was attached. The volume of administration was 1 ml/kg.
# The compounds were dissolved in 100% N,N-dimethylacetamide. All administrations were given using 1 cc tuberculin syringes, to which a 3 inch, curved, stainless steel gavage needle was attached. The volume of administration was 1 ml/kg.
# The forced swim test data (immobility, swimming, climbing, diving) were subjected to a randomized, one-way ANOVA and post hoc tests conducted using the Student-Newman-heuls test. The data were analyzed using the GBSTAT program, version 6.5 (Dynamics Microsystems, Inc., Silver Spring, MD, 1997). All data are presented as means ± S.E.M.
# [1] = 1 mg/kg p.o., single administration, 1 hr. before test
# [2] = 3 mg/kg p.o., single administration, 1 hr. before test
# [3] = 10 mg/kg p.o., single administration, 1 hr. before test
# [4] = 3 mg/kg p.o., single administration 24 hours before the test day
# [5] = 5 mg/kg p.o., single administration, 1 hr. before test
# [6] = 10 mg/kg i.p., single injection, 5 minute test
# [7] = 10 mg/kg p.o., single administration 24 hours before the test day
compound,measurement,setting,value
Cc1ccc(Nc2cc(N3CCCCC3)nc(N3CCCc4ccccc43)n2)cc1 [Example 40],Ki,human GAL2 receptor,2620 nM
same,Ki,human GAL3 receptor; pyrimidines,164 nM
COc1cc2c(cc1OC)CN(c1nc(Nc3ccc(C)cc3)cc(N3CCCCC3)n1)CC2 [Example 42],Ki,human GAL2 receptor,1140 nM
same,Ki,human GAL3 receptor; pyrimidines,275 nM
Cc1ccc(Nc2cc(N3CCCCC3)nc(N3CCC(O)(c4ccccc4)CC3)n2)cc1 [Example 44],Ki,human GAL2 receptor,1020 nM
same,Ki,human GAL3 receptor; pyrimidines,133 nM
Cc1ccc(Nc2cc(N(C)C)nc(N(C)c3ccc(C)cc3)n2)cc1 [Example 72],Ki,human GAL2 receptor,2080 nM
same,Ki,human GAL3 receptor; pyrimidines,132 nM
Cc1ccc(Nc2cc(N(C)C)nc(N(C)C3CCCCC3)n2)cc1 [Example 73],Ki,human GAL2 receptor,1550 nM
same,Ki,human GAL3 receptor; pyrimidines,124 nM
Cc1ccc(Nc2cc(N(C)C)nc(N3CCC(O)(c4ccccc4)CC3)n2)cc1 [Example 80],Ki,human GAL2 receptor,2480 nM
same,Ki,human GAL3 receptor; pyrimidines,615 nM
Cc1ccc(Nc2cc(N(C)C)nc(N3CCC(c4ccccc4)CC3)n2)cc1 [Example 81],Ki,human GAL2 receptor,4790 nM
same,Ki,human GAL3 receptor; pyrimidines,160 nM
Cc1ccc(Nc2cc(N(C)C)nc(N3CCN(c4ccccc4C)CC3)n2)cc1 [Example 85],Ki,human GAL2 receptor,4230 nM
same,Ki,human GAL3 receptor; pyrimidines,72 nM
Cc1ccc(Nc2cc(N(C)C)nc(N3CCN(c4ccc(C)cc4)CC3)n2)cc1 [Example 87],Ki,human GAL2 receptor,4620 nM
same,Ki,human GAL3 receptor; pyrimidines,157 nM
CN(C)c1cc(Nc2ccc(Cl)c(Cl)c2)nc(N2CCN(Cc3ccccc3)CC2)n1 [Example 151],Ki,human GAL3 receptor; pyrimidines,11 nM
same,Climbing,Male Sprague-Dawley rats; [1],2.3 ± 0.6
same,Diving,Male Sprague-Dawley rats; [1],0.2 ± 0.2
same,Immobility,Male Sprague-Dawley rats; [1],41 ± 2.0
same,Swimming,Male Sprague-Dawley rats; [1],16.8 ± 1.4^d
same,Climbing,Male Sprague-Dawley rats; [2],2.4 ± 0.5
same,Diving,Male Sprague-Dawley rats; [2],0.3 ± 0.2
same,Immobility,Male Sprague-Dawley rats; [2],38 ± 2.0^a
same,Swimming,Male Sprague-Dawley rats; [2],19.5 ± 1.5^e
same,Climbing,Male Sprague-Dawley rats; [3],2.2 ± 0.5
same,Diving,Male Sprague-Dawley rats; [3],0.3 ± 0.2
same,Immobility,Male Sprague-Dawley rats; [3],39 ± 1.8^b
same,Swimming,Male Sprague-Dawley rats; [3],18.9 ± 1.5^e
same,antidepressant profile in the FST (conclusion),Male Sprague-Dawley rats,resemble those of antidepressants
"O=C1/C(=N\c2ccc(Cl)c(Cl)c2)c2ccccc2N1c1ccsc1 [Example 272, (3Z)-3-[(3,4-DICHLOROPHENYL)IMINO]-1-(3-THIENYL)-1,3-DIHYDRO-2H-INDOL-2-ONE]",Ki,human GAL3 receptor; indolones,26 nM
same,Climbing,Male Sprague-Dawley rats; [4],3.9 ± 0.6
same,Diving,Male Sprague-Dawley rats; [4],0.6 ± 0.4
same,Immobility,Male Sprague-Dawley rats; [4],33 ± 1.8^a
same,Swimming,Male Sprague-Dawley rats; [4],22.9 ± 1.3^b
same,antidepressant profile in the FST (conclusion),Male Sprague-Dawley rats,has the profile of an antidepressant
"CNCCC(Oc1ccc(C(F)(F)F)cc1)c1ccccc1 (centres unmarked) [Fluoxetine, fluoxetine, reference compound]",Climbing,Male Sprague-Dawley rats; [5],1.2 ± 0.4
same,Diving,Male Sprague-Dawley rats; [5],0.0 ± 0.0
same,Immobility,Male Sprague-Dawley rats; [5],45 ± 1.3^c
same,Swimming,Male Sprague-Dawley rats; [5],13.9 ± 1.0
same,Climbing,Male Sprague-Dawley rats; [6],14.3 ± 0.9 counts
same,Diving,Male Sprague-Dawley rats; [6],0.1 ± 0.1
same,Immobility,Male Sprague-Dawley rats; [6],21 ± 0.9^a counts
same,Swimming,Male Sprague-Dawley rats; [6],25 ± 1.2^b counts
same,Climbing,Male Sprague-Dawley rats; [7],3.3 ± 0.6
same,Diving,Male Sprague-Dawley rats; [7],0.2 ± 0.1
same,Immobility,Male Sprague-Dawley rats; [7],35 ± 1.7^a
same,Swimming,Male Sprague-Dawley rats; [7],21.4 ± 1.0^b

# From patent EP2140864A2 (H. Lundbeck A/S, priority 2001, dated 2002)
